Laboratory results taken from ChEMBL document CHEMBL4387701, “H2depda: An acyclic adjuvant potentiates meropenem activity in vitro against metallo-β-lactamase-producing enterobacterales” (Eur J Med Chem, 2019).
pIC50: −log10 of the molar value. In brackets after ≈: the same amount, converted by molar mass. Values belong to the molecule of their own block, whether it stands above or below them. Activity calls are given as the source filed them. No cut-off for these calls is given here.

Key:
Escherichia coli [1] = experiment: Effect on growth of NDM4-positive Escherichia coli assessed as bacterial growth at 0.03125 ug/mL after 24 hrs by broth microdilution method relative to control; format: functional
Enterobacter cloacae [2] = experiment: Effect on growth of Enterobacter cloacae isolate 15 after 24 hrs by broth microdilution method; format: organism-based
Escherichia coli [3] = experiment: Effect on growth of Escherichia coli isolate 1 after 24 hrs by broth microdilution assay; format: organism-based
Enterobacter cloacae [4] = experiment: Inhibition of NDM1 in Enterobacter cloacae isolate 6 assessed as potentiation of meropenem-induced antibacterial activity by measuring meropenem MIC after 24 hrs by broth microdilution assay (reference value: 320 ug/ml)
Escherichia coli [5] = experiment: Effect on growth of Escherichia coli isolate 18 after 24 hrs by broth microdilution method; format: organism-based
Escherichia coli [6] = experiment: Inhibition of NDM-7 in Escherichia coli isolate 2 assessed as potentiation of meropenem-induced antibacterial activity by measuring meropenem MIC after 24 hrs by broth microdilution assay (reference value: 640 ug/ml)
Escherichia coli [7] = experiment: Effect on growth of NDM4-positive Escherichia coli assessed as bacterial growth at 64 ug/mL after 24 hrs by broth microdilution method relative to control; format: organism-based
Klebsiella pneumoniae [8] = experiment: Inhibition of IMP4 in Klebsiella pneumoniae isolate 17 assessed as potentiation of meropenem-induced antibacterial activity by measuring meropenem MIC after 24 hrs by broth microdilution method (reference value: 32 ug/ml)
Escherichia coli [9] = experiment: Effect on growth of Escherichia coli isolate 11 after 24 hrs by broth microdilution method; format: organism-based
Enterobacter cloacae [10] = experiment: Inhibition of IMP4 in Enterobacter cloacae isolate 15 assessed as potentiation of meropenem-induced antibacterial activity by measuring meropenem MIC after 24 hrs by broth microdilution method (reference value: 32 ug/ml)
[11] = target: T1, Metallo-beta-lactamase NDM-4 (Escherichia coli) (UniProt H6WZS9); experiment: Inhibition of NDM4 in Escherichia coli isolate 3 assessed as potentiation of meropenem-induced antibacterial activity by measuring meropenem MIC after 24 hrs by broth microdilution assay (reference value: 1280 ug/ml)
T1 sequence (whole entry): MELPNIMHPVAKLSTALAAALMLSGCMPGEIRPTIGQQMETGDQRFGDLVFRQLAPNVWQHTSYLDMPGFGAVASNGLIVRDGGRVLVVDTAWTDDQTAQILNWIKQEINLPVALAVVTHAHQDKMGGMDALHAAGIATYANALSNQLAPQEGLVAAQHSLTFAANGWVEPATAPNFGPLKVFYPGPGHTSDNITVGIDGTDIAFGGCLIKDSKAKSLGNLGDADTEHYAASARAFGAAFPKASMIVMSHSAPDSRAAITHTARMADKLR

Klebsiella pneumoniae [12] = experiment: Inhibition of IMP4 in Klebsiella pneumoniae isolate 13 assessed as potentiation of meropenem-induced antibacterial activity by measuring meropenem MIC after 24 hrs by broth microdilution method (reference value: 320 ug/ml)
Escherichia coli [13] = experiment: Effect on growth of Escherichia coli isolate 3 after 24 hrs by broth microdilution assay; format: organism-based
Proteus mirabilis [14] = experiment: Effect on growth of Proteus mirabilis isolate 19 after 24 hrs by broth microdilution method; format: organism-based
Klebsiella pneumoniae [15] = experiment: Effect on growth of Klebsiella pneumoniae isolate 10 after 24 hrs by broth microdilution method; format: organism-based
Proteus mirabilis [16] = experiment: Inhibition of IMP4 in Proteus mirabilis isolate 19 assessed as potentiation of meropenem-induced antibacterial activity by measuring meropenem MIC after 24 hrs by broth microdilution method (reference value: 320 ug/ml)
Escherichia coli [17] = experiment: Effect on growth of Escherichia coli isolate 8 after 24 hrs by broth microdilution assay; format: organism-based
[18] = target: T1, Metallo-beta-lactamase NDM-4 (Escherichia coli); experiment: Inhibition of NDM4 in Escherichia coli isolate 3 assessed as potentiation of meropenem-induced bactericidal activity at 4 times MIC incubated for 24 hrs followed by replating on agar plates for 16 to 18 hrs and measured up to 24 hrs by time kill assay
Klebsiella pneumoniae [19] = experiment: Effect on growth of Klebsiella pneumoniae isolate 12 after 24 hrs by broth microdilution method; format: organism-based
Escherichia coli [20] = experiment: Inhibition of IMP4 in Escherichia coli isolate 11 assessed as potentiation of meropenem-induced antibacterial activity by measuring meropenem MIC after 24 hrs by broth microdilution method (reference value: 32 ug/ml)
Escherichia coli [21] = experiment: Effect on growth of Escherichia coli isolate 2 after 24 hrs by broth microdilution assay; format: organism-based
Escherichia coli [22] = experiment: Inhibition of NDM1 in Escherichia coli isolate 1 assessed as potentiation of meropenem-induced antibacterial activity by measuring meropenem MIC after 24 hrs by broth microdilution assay (reference value: 1280 ug/ml)
[23] = target: T1, Metallo-beta-lactamase NDM-4 (Escherichia coli); experiment: Inhibition of Escherichia coli NDM4 assessed as potentiation of meropenem-induced antibacterial activity by measuring reduction in bacterial growth at 64 ug/mL after 24 hrs by broth microdilution method relative to control
Escherichia coli [24] = experiment: Inhibition of IMP4 in Escherichia coli isolate 14 assessed as potentiation of meropenem-induced antibacterial activity by measuring meropenem MIC after 24 hrs by broth microdilution method (reference value: 16 ug/ml)
Escherichia coli [25] = experiment: Inhibition of IMP4 in Escherichia coli isolate 18 assessed as potentiation of meropenem-induced antibacterial activity by measuring meropenem MIC after 24 hrs by broth microdilution method (reference value: 16 ug/ml)
Enterobacter cloacae [26] = experiment: Inhibition of IMP4 in Enterobacter cloacae isolate 16 assessed as potentiation of meropenem-induced antibacterial activity by measuring meropenem MIC after 24 hrs by broth microdilution method (reference value: 64 ug/ml)
Escherichia coli [27] = experiment: Effect on growth of Escherichia coli isolate 9 after 24 hrs by broth microdilution assay; format: organism-based
Enterobacter cloacae [28] = experiment: Inhibition of NDM1 in Enterobacter cloacae isolate 5 assessed as potentiation of meropenem-induced antibacterial activity by measuring meropenem MIC after 24 hrs by broth microdilution assay (reference value: 640 ug/ml)
Enterobacter cloacae [29] = experiment: Effect on growth of Enterobacter cloacae isolate 4 after 24 hrs by broth microdilution assay; format: organism-based
Citrobacter freundii = experiment: Effect on growth of Citrobacter freundii isolate 7 after 24 hrs by broth microdilution assay; format: organism-based
Enterobacter cloacae [30] = experiment: Effect on growth of Enterobacter cloacae isolate 5 after 24 hrs by broth microdilution assay; format: organism-based
Klebsiella pneumoniae [31] = experiment: Inhibition of IMP4 in Klebsiella pneumoniae isolate 10 assessed as potentiation of meropenem-induced antibacterial activity by measuring meropenem MIC after 24 hrs by broth microdilution method (reference value: 64 ug/ml)
[32] = target: T1, Metallo-beta-lactamase NDM-4 (Escherichia coli); experiment: Inhibition of Escherichia coli NDM4 assessed as potentiation of meropenem-induced antibacterial activity by measuring bacterial growth rate at 64 ug/mL after 24 hrs in presence of ZnCl2 by broth microdilution method relative to control
Klebsiella pneumoniae [33] = experiment: Effect on growth of Klebsiella pneumoniae isolate 17 after 24 hrs by broth microdilution method; format: organism-based
Klebsiella pneumoniae [34] = experiment: Inhibition of IMP4 in Klebsiella pneumoniae isolate 12 assessed as potentiation of meropenem-induced antibacterial activity by measuring meropenem MIC after 24 hrs by broth microdilution method (reference value: 16 ug/ml)
Escherichia coli [35] = experiment: Effect on growth of Escherichia coli isolate 14 after 24 hrs by broth microdilution method; format: organism-based
Enterobacter cloacae [36] = experiment: Effect on growth of Enterobacter cloacae isolate 16 after 24 hrs by broth microdilution method; format: organism-based
Escherichia coli [37] = experiment: Inhibition of NDM1 in Escherichia coli isolate 8 assessed as potentiation of meropenem-induced antibacterial activity by measuring meropenem MIC after 24 hrs by broth microdilution assay (reference value: 320 ug/ml)
Enterobacter cloacae [38] = experiment: Inhibition of NDM1 in Enterobacter cloacae isolate 4 assessed as potentiation of meropenem-induced antibacterial activity by measuring meropenem MIC after 24 hrs by broth microdilution assay (reference value: 640 ug/ml)
Klebsiella pneumoniae [39] = experiment: Effect on growth of Klebsiella pneumoniae isolate 13 after 24 hrs by broth microdilution method; format: organism-based
Enterobacter cloacae [40] = experiment: Effect on growth of Enterobacter cloacae isolate 6 after 24 hrs by broth microdilution assay; format: organism-based
[41] = target: T1, Metallo-beta-lactamase NDM-4 (Escherichia coli); experiment: Inhibition of NDM4 in Escherichia coli ATCC 25922 assessed as potentiation of meropenem-induced antibacterial activity by measuring zone of inhibition by agar disk diffusion method
[42] = Inhibition of Stenotrophomonas maltophilia NDM1 expressed in Escherichia coli BL21 (DE3) expressing measured after 15 minutes at interval of 60 secs
[43] = test system: Escherichia coli ATCC 25922; experiment: Inhibition of IMP-4 in Escherichia coli ATCC 25922 assessed as potentiation of meropenem-induced antibacterial activity by measuring zone of inhibition by agar disk diffusion method

Structure (SMILES): C[C@@H](O)[C@H]1C(=O)N2C(C(=O)O)=C(S[C@@H]3CN[C@H](C(=O)N(C)C)C3)[C@H](C)[C@H]12 [MEROPENEM]
Activity (Escherichia coli [1]): 95%

MIC (Enterobacter cloacae [2]): 16 µg/mL (≈ 52.8 µM)
MIC (Escherichia coli [3]): 16 µg/mL (≈ 52.8 µM)
MIC (Enterobacter cloacae [4]): 0.0312 µg/mL
MIC (Escherichia coli [5]): 16 µg/mL (≈ 52.8 µM)
MIC (Escherichia coli [6]): 0.25 µg/mL
Activity (Escherichia coli [7]): 95%
MIC (Klebsiella pneumoniae [8]): 4 µg/mL
MIC (Escherichia coli [9]): 16 µg/mL (≈ 52.8 µM)
MIC (Enterobacter cloacae [10]): 1 µg/mL
MIC [11]: 0.25 µg/mL
MIC (Klebsiella pneumoniae [12]): 4 µg/mL
MIC (Escherichia coli [13]): 16 µg/mL (≈ 52.8 µM)
MIC (Proteus mirabilis [14]): 16 µg/mL (≈ 52.8 µM)
MIC (Klebsiella pneumoniae [15]): 16 µg/mL (≈ 52.8 µM)
MIC (Proteus mirabilis [16]): 4 µg/mL
MIC (Escherichia coli [17]): 16 µg/mL (≈ 52.8 µM)
MIC (Klebsiella pneumoniae [19]): 16 µg/mL (≈ 52.8 µM)
MIC (Escherichia coli [20]): 1 µg/mL
MIC (Escherichia coli [21]): 16 µg/mL (≈ 52.8 µM)
MIC (Escherichia coli [22]): 0.0312 µg/mL
inhibition [23]: Active
MIC (Escherichia coli [24]): 4 µg/mL
MIC (Escherichia coli [25]): 2 µg/mL
MIC (Enterobacter cloacae [26]): 2 µg/mL
MIC (Escherichia coli [27]): 16 µg/mL (≈ 52.8 µM)
MIC (Enterobacter cloacae [28]): 0.25 µg/mL
MIC (Enterobacter cloacae [29]): 16 µg/mL (≈ 52.8 µM)
MIC (Citrobacter freundii): 16 µg/mL (≈ 52.8 µM)
MIC (Enterobacter cloacae [30]): 16 µg/mL (≈ 52.8 µM)
MIC (Klebsiella pneumoniae [31]): 4 µg/mL
inhibition [32]: 81%
MIC (Klebsiella pneumoniae [33]): 16 µg/mL (≈ 52.8 µM)
MIC (Klebsiella pneumoniae [34]): 1 µg/mL
MIC (Escherichia coli [35]): 16 µg/mL (≈ 52.8 µM)
MIC (Enterobacter cloacae [36]): 16 µg/mL (≈ 52.8 µM)
MIC (Escherichia coli [37]): 0.125 µg/mL
MIC (Enterobacter cloacae [38]): 0.125 µg/mL
MIC (Klebsiella pneumoniae [39]): 16 µg/mL (≈ 52.8 µM)
MIC (Enterobacter cloacae [40]): 16 µg/mL (≈ 52.8 µM)
Structure (SMILES): O=C(O)CN1CCN(CC(=O)O)CCN(CC(=O)O)CC1
inhibition [18]: Active

inhibition zone (IZ) [41]: 18.2 mm
pIC50 [42]: 5.07
inhibition zone (IZ) [43]: 13.9 mm
Structure (SMILES): O=C(O)CN(CCN(CC(=O)O)CC(=O)O)CC(=O)O [EDETIC ACID]
